The values below come from US20070265301A1, “Dpp-IV Inhibitors” (priority 2004, published 2007).

The test concerns the target T1, DPP-IV (Homo sapiens, UniProt P27487).
T1 construct: Soluble human DPP-IV lacking the transmembrane anchor (Gly31-Pro766); Pre-Pro-alpha-mating factor leader (secretion signal) (N, cleaved yes); made in house
Kind of test: Continuous fluorimetric assay of DPP-IV peptidase activity (Gly-Pro-AMC cleavage). The class given is biochemical. As to conditions: 50 pM DPP-IV, 16 μM Gly-Pro-AMC, pH 7.4, 25° C., 1% DMSO; values grouped in 3 classes; read-out: IC50 for inhibition of DPP-IV peptidase activity. How it is done:
Inhibition of DPP-IV peptidase activity was monitored with a continuous fluorimetric assay. This assay is based on the cleavage of the substrate Gly-Pro-AMC (Bachem) by DPP-IV, releasing free AMC. The assay is carried out in 96-well microtiterplates. In a total volume of 100 μL, compounds are preincubated with 50 pM DPP-IV employing a buffer containing 10 mM Hepes, 150 mM NaCl, 0.005% Tween 20 (pH 7.4). The reaction is started by the addition of 16 μM substrate and the fluorescence of liberated AMC is detected for 10 minutes at 25° C. with a fluorescence reader (BMG-Fluostar; BMG-Technologies) using an excitation wavelength of 370 nm and an emission wavelength of 450 nm. The final concentration of DMSO is 1%. The inhibitory potential of the compounds were determined.
Soluble human DPP-IV lacking the transmembrane anchor (Gly31-Pro766) was expressed in a recombinant YEAST-strain as Pre-Pro-alpha-mating fusion. The secreted product (rhuDPP-IV-Gly31-Pro766) was purified from fermentation broth (>90% purity).
In the table are listed the IC50 values for inhibition of DPP-IV peptidase activity determined in assays as described above.

Where a name gives a salt, the structure may show the parent alone. A value given as a limit tells only on which side of the number the result lay.

T1 sequence (P27487 31-766): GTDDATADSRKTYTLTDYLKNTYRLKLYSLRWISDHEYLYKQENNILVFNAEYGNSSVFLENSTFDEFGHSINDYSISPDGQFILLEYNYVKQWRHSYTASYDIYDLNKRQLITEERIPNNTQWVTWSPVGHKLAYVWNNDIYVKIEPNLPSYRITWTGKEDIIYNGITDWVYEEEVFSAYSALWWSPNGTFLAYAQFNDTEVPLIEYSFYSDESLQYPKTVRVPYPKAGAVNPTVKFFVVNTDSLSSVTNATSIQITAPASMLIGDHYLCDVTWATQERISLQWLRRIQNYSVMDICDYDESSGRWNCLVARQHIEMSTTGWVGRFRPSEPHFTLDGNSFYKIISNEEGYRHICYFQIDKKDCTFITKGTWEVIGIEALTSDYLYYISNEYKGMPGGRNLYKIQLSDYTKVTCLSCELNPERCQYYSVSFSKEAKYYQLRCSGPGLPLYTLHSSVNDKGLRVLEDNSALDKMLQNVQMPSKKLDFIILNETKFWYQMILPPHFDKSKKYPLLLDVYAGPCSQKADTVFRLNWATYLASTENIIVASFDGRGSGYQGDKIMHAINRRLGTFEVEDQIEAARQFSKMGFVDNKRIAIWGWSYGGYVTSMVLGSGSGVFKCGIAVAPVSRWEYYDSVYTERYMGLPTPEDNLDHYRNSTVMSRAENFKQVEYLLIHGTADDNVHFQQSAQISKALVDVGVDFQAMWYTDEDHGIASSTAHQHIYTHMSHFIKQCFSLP

As a reminder, the IC50 is the concentration needed to halve the response being measured. Regarding `NC(CC(=O)N1Cc2ccccc2C[C@H]1CNS(=O)(=O)C1CC1)Cc1cc(F)ccc1F` (mixture of isomers) [Example 11, Cyclopropanesulfonic acid {2-[(3-amino-4-(2,5-difluoro-phenyl)-butyryl]-1,2,3,4-tetrahydro-isoquinolin-(3S)-3-ylmethyl}-amide, trifluoroacetate salt], the IC50 is at most 100 nM.

For `N[C@@H](CC(=O)N1c2ccccc2CC1COCc1ccccc1)Cc1ccccc1F` (mixture of isomers) [Example 13, (3R)-3-Amino-1-benzyloxymethyl-2,3-dihydro-indo-1-yl)-4-(2-fluorophenyl)-butan-1-one trifluoroacetate salt], the IC50 lay in the range of 1000 to 2000 nM.

In the case of `N[C@@H](CC(=O)N1Cc2ccccc2C[C@H]1CNC(=O)C1CC1)Cc1ccccc1F` [Example 1, Cyclopropanecarboxylic acid {2-[(3R)-3-amino-4-(2-fluoro-phenyl)-butyryl]-1,2,3,4-tetrahydro-isoquinolin-(3S)-3-ylmethyl]-amide, trifluoroacetate salt], the IC50 was in the range of 101 to 1000 nM.

For the compound `N[C@@H](CC(=O)N1Cc2ccccc2C[C@H]1CNC(=O)C1(O)CC1)Cc1ccccc1F` [Example 2, 1-Hydroxy-cyclopropanecarboxylic acid {2-[(3R)-3-amino-4-(2-fluoro-phenyl)-butyryl]-1,2,3,4-tetrahydro-isoquinolin-(3S)-3-ylmethyl}-amide, trifluoroacetate salt], the half-maximal inhibitory concentration (IC50) was 101 to 1000 nM.

`N[C@@H](CC(=O)N1Cc2ccccc2C[C@H]1CNC(=O)CO)Cc1ccccc1F` [Example 3, N-{2-[(3R)-3-Amino-4-(2-fluoro-phenyl)-butyryl-1,2,3,4-tetrahydroisoquinolin-(3S)-3-ylmethyl}-2-hydroxy-acetamide, trifluoroacetate salt]: the concentration for half-maximal inhibition (IC50) lay within 101 to 1000 nM.

As for `N[C@@H](CC(=O)N1Cc2ccccc2C[C@H]1CNC(=O)c1ccccc1)Cc1ccccc1F` [Example 4, N-{2-[(3R)-3-Amino-4-(2-fluoro-phenyl)-butyryl}-1,2,3,4-tetrahydro-isoquinolin-(3S)-3-ylmethyl}-benzamide, trifluoroacetate salt], the half-inhibitory concentration (IC50) is at most 100 nM.

With `Cc1cc(C(=O)NC[C@@H]2Cc3ccccc3CN2C(=O)C[C@H](N)Cc2ccccc2F)no1` [Example 5, 5-Methyl-isoxazole-3-carboxylic acid-{2-[(3R)-3-amino-4-(2-fluoro-phenyl)-butyryl]-1,2,3,4-tetrahydro-isoquinolin-(3S)-3-ylmethyl}-amide, trifluoroacetate salt], the IC50 was at most 100 nM.

For `Nc1nc(C(=O)NC[C@@H]2Cc3ccccc3CN2C(=O)C[C@H](N)Cc2ccccc2F)n[nH]1` [Example 6, 5-Amino-1H-[1,2,4]triazole-3-carboxylic acid-{2-[(3R)-3-amino-4-(2-fluoro-phenyl)-butyryl]-1,2,3,4-tetrahydro-isoquinolin-(3S)-3-ylmethyl-amide, trifluoroacetate salt], the IC50 was at most 100 nM.

With `CN(C)C[C@@H]1Cc2ccccc2CN1C(=O)C[C@H](N)Cc1ccccc1F` [Example 7, (3R)-3-Amino-1-(3S)-3-(3-dimethylaminomethyl-3,4-dihydro-1H-isoquinolin-2-yl)-4-(2-fluorophenyl)-butan-1-one, trifluoroacetate salt], the IC50 lay in the range of 1000 to 2000 nM.

In the case of `CS(=O)(=O)NC[C@@H]1Cc2ccccc2CN1C(=O)C[C@H](N)Cc1ccccc1F` [Example 8, N-{2-[(3R)-3-Amino-4-[2-fluoro-phenyl)-butyryl]-1,2,3,4-tetrahydro-isoquinolin-(3S)-3-ylmethyl}-methanesulfonamide, trifluoroacetate salt], the IC50 is at most 100 nM.

Turning to `N[C@@H](CC(=O)N1Cc2ccccc2C[C@H]1CNS(=O)(=O)C1CC1)Cc1ccccc1F` [Example 9, Cyclopropanesulfonic acid {2-[(3R)-3-amino-4-(2-fluoro-phenyl)-butyryl]-1,2,3,4-tetrahydro-isoquinolin-(3S)-3-ylmethyl-amide, trifluoroacetate salt], the IC50 was at most 100 nM.

For the compound `N[C@@H](CC(=O)N1Cc2ccccc2C[C@H]1CNS(=O)(=O)C1CC1)Cc1cccc(Cl)c1` [Example 10, Cyclopropanesulfonic acid {2-[(3R)-3-amino-4-(3-chloro-phenyl)-butyryl]-1,2,3,4-tetrahydro-isoquinolin-(3S)-3-ylmethyl]-amide, trifluoroacetate salt], the IC50 was at most 100 nM.

Consider `N[C@@H](CC(=O)N1Cc2ccccc2C[C@H]1COc1cccc(F)c1)Cc1ccccc1F` [Example 12, trifluoroacetate salt], for which the IC50 was at most 100 nM.

`N[C@@H](CC(=O)N1Cc2ccccc2CC1COCc1ccccc1)Cc1ccccc1F` (stereo partly drawn) [Example 14, (3R)-3-Amino-1-benzyloxymethyl-3,4-dihydro-1H-isoquinolin-2-yl)-4-(2-fluorophenyl)-butan-1-one, trifluoroacetate salt]: the IC50 is at most 100 nM.
